Reference: ChEMBL document CHEMBL1201862, “PubChem BioAssay data set” (2004)
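1) Cells in 96-well plates. 2) Compound, 48 h, 5 concentrations. 3) Linear interpolation between surrounding doses. 4) Unreached endpoint = highest concentration. GI50 is the concentration that inhibits growth by half.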 Calls of active or inactive are those of the source. No stated cut-off is given here; in the data, active = GI50 up to about 1.1 µM and inactive = higher.

Experiments:
Test in all cases: NCI-60 cell line screen, 48 h
[1] = tested on: LOX IMVI
[2] = tested on: SK-MEL-2
[3] = tested on: Hs-578T
[4] = tested on: NCI-H522
[5] = tested on: HCT-15
[6] = tested on: ACHN
[7] = tested on: BT-549
[8] = tested on: Malme-3M
[9] = tested on: IGROV-1
[10] = tested on: HOP-62
[11] = tested on: CCRF-CEM
[12] = tested on: HOP-92
[13] = tested on: MDA-N
[14] = tested on: OVCAR-5
[15] = tested on: U-251
[16] = tested on: T47D
[17] = tested on: SNB-19
[18] = tested on: HL-60
[19] = tested on: COLO 205
[20] = tested on: MDA-MB-231

Row | SMILES | GI50 [1] | GI50 [2] | GI50 [3] | GI50 [4] | GI50 [5] [µM] | GI50 [6] | GI50 [7] | GI50 [8] | GI50 [9] | GI50 [10] | GI50 [11] | GI50 [12] | GI50 [13] | GI50 [14] | GI50 [15] | GI50 [16] | GI50 [17] | GI50 [18] | GI50 [19] | GI50 [20]
1 | C/C=C(/C)C(=O)O[C@@H]1CCN2CC[C@H](COC(=O)/C(=C/C)CO)C12 (stereo not given in full) | 61.8 µM (inactive) | 41.4 µM (inactive) | 36.6 µM (inactive) | 49.4 µM (inactive) | > 100 | > 100 µM (inactive) | > 100 µM (inactive) | 32 µM (inactive) | > 100 µM (inactive) | > 100 µM (inactive) | 37.7 µM (inactive) | 58.2 µM (inactive) | 39.2 µM (inactive) | > 100 µM (inactive) | > 100 µM (inactive) | > 100 µM (inactive) | > 100 µM (inactive) | > 59.8 µM (inactive) | 20.6 µM (inactive) | > 100 µM (inactive)
2 | COC(=O)[C@@H]1C=C[C@H](OC2OC(COC(C)=O)C(OC(C)=O)C(OC(C)=O)C2OC(C)=O)n2c(=O)c3ccccc3c(=O)n21 (stereo not given in full) | 10.9 µM (inactive) | 9.16 µM (inactive) | 27.7 µM (inactive) | 1.68 µM (inactive) | 10.8 | 11.7 µM (inactive) | 4.8 µM (inactive) | 16.9 µM (inactive) | 18.2 µM (inactive) | 17.9 µM (inactive) | 4.14 µM (inactive) | 10.1 µM (inactive) | > 10 µM (inactive) | 16 µM (inactive) | 12 µM (inactive) | 4.7 µM (inactive) | 19.4 µM (inactive) | 3.95 µM (inactive) | 8.65 µM (inactive) | > 10 µM (inactive)
3 | O=C(/C=C/c1ccccc1)CCN1CCOCC1 | 10.9 µM (inactive) | 21.1 µM (inactive) | 27.1 µM (inactive) | 3.87 µM (inactive) | 8.57 | 15.2 µM (inactive) | 12.6 µM (inactive) | 18.6 µM (inactive) | 15.7 µM (inactive) | 27.3 µM (inactive) | 1.82 µM (inactive) | 16.8 µM (inactive) | 14.2 µM (inactive) | 15.7 µM (inactive) | 12.9 µM (inactive) | 17.7 µM (inactive) | 23.8 µM (inactive) | 2.12 µM (inactive) | 8.3 µM (inactive) | 16.6 µM (inactive)
4 | COC1(OC)CCN(Cc2ccccc2)C1=O | 5.45 µM (inactive) | 15.4 µM (inactive) | > 100 µM (inactive) | > 100 µM (inactive) | 13.4 | 6.28 µM (inactive) | 17.2 µM (inactive) | > 100 µM (inactive) | 13.9 µM (inactive) | 20.6 µM (inactive) | 2.25 µM (inactive) | 11.1 µM (inactive) | 10.7 µM (inactive) | 17.7 µM (inactive) | 17.3 µM (inactive) | 4.45 µM (inactive) | 17.8 µM (inactive) | 1.69 µM (inactive) | 4.54 µM (inactive) | 18.5 µM (inactive)
5 | CCCCCCCCCCCCCCCCNc1nc(=O)n(C2CC(O)C(CO)O2)cc1F (stereo not given) | 10.5 µM (inactive) | 19.6 µM (inactive) | 17.4 µM (inactive) | 5.28 µM (inactive) | 0.875 | 0.259 µM (active) | 16.3 µM (inactive) | 10.8 µM (inactive) | 11.6 µM (inactive) | 7.52 µM (inactive) | > 10 µM (inactive) | 10.3 µM (inactive) | 16 µM (inactive) | 18.2 µM (inactive) | 11.7 µM (inactive) | 11.7 µM (inactive) | 13.7 µM (inactive) | 5.47 µM (inactive) | 12.7 µM (inactive) | 21.7 µM (inactive)
6 | CN(C)c1ccc(C(Cc2ccccc2)C2NC(=S)NC2=O)cc1 (stereo not given) | > 100 µM (inactive) | > 100 µM (inactive) | 91.8 µM (inactive) | > 100 µM (inactive) | > 100 | > 100 µM (inactive) | > 100 µM (inactive) | > 74.8 µM (inactive) | > 100 µM (inactive) | > 100 µM (inactive) | > 100 µM (inactive) | > 100 µM (inactive) | > 100 µM (inactive) | > 100 µM (inactive) | > 94 µM (inactive) | > 100 µM (inactive) | > 100 µM (inactive) | 29.1 µM (inactive) | > 100 µM (inactive) | > 100 µM (inactive)
7 | C/C(=N\NC(=[Se])N(C)C)c1ccccn1 | < 0.01 µM (active) | 0.585 µM (active) | 0.208 µM (active) | 0.0497 µM (active) | 0.0352 | < 0.01 µM (active) | 7.31 µM (inactive) | 0.47 µM (active) | < 0.01 µM (active) | < 0.01 µM (active) | < 0.01 µM (active) | 1.09 µM (active) | 1.89 µM (inactive) | 0.103 µM (active) | < 0.01 µM (active) | 0.0364 µM (active) | 1.37 µM (inactive) | < 0.01 µM (active) | < 0.01 µM (active) | 0.0131 µM (active)
8 | CC(=O)Nc1nnc(S(=O)(=O)NC(=S)Nc2ccc(Cl)cc2)s1 | > 100 µM (inactive) | > 100 µM (inactive) | > 100 µM (inactive) | > 100 µM (inactive) | > 100 | > 100 µM (inactive) | > 100 µM (inactive) | > 100 µM (inactive) | > 100 µM (inactive) | > 100 µM (inactive) | > 100 µM (inactive) | > 100 µM (inactive) | > 100 µM (inactive) | > 100 µM (inactive) | > 100 µM (inactive) | > 100 µM (inactive) | > 100 µM (inactive) | > 100 µM (inactive) | > 100 µM (inactive) | > 100 µM (inactive)
